The values below come from patent EP4650353A1 (Shanghai Institute of Materia Medica, Chinese Academy of …, priority 2023, dated 2024).

Structures are written as SMILES.

One test has as its target T1, human GLP-1 receptor (Homo sapiens, UniProt P43220).
T1 construct: HA (N); expressed in transfected cells
Nature of the test: GLP-1 receptor-mediated agonist activity: cAMP level in hGLP-1R/HEK293 cell line (HTRF). In kind it is cell-based. The following applies: cAMP levels in hGLP-1R/HEK293 cell line; Table 1; read-out: determined EC50.

The test system of the next test is hGLP-1R KI mice. Nature of the test: Diet inhibition by Tris salts (food intake after single oral dose). In kind it is in vivo. Particulars: Tris salt, 30 mg/kg, single oral administration. As to the method: Mouse model: hGLP-1R KI mice, 8 female mice per experimental group.
Experimental procedure: Mice were separated into cages and fasted 6 hours in advance, and were given drugs by oral gavage at the beginning of the night cycle (7:00 PM). The weight of food in each cage was weighed at 0, 2.5, 5, 12 (7:00 AM at the beginning of the day cycle), and 24 hours after drug administration to calculate the food intake of mice.

Test [1] deals with hGLP-1 receptor knock-in mice. The test is described as follows: Oral glucose tolerance test in mice. In kind it is in vivo. The method, then:
(§1) Genetically engineered hGLP-1R gene knock-in mice, male, 8-10 weeks old, specific pathogen free (SPF) grade, were purchased from Biocytogen Jiangsu Gene Biotechnology Co., Ltd. All experimental animals were housed in the SPF-level environment of the National Compound Sample Library animal room, with a temperature of 24±2°C, a relative humidity of 40-60%RH, an air cleanliness level of 7, and a day and night light-dark cycle of 12h/12h; they were continuously supplied with cobalt-60 radiation-sterilized complete mouse granular feed (Shanghai Shilin Biotechnology Co., Ltd., maintenance feed for rats and mice), and were allowed to drink tap water (sterilized with high-pressure steam) without interruption, and were allowed to drink it freely. The cages were transparent polyetherimide cages (Suzhou Fengshi Experimental Animal Equipment Co., Ltd., CP-8 mouse cages), and the bedding was corn cobs (Tezhou Gumei Agricultural Technology Co., Ltd., used after high-pressure steam sterilization). There were 3-5 animals in each cage, and the cage card indicated the IACUC approval number, experiment number, experiment start time, person in charge, experimenter, animal source, group and animal number. The purchased mice were adapted to this breeding environment for at least 7 days before being used in experiments. The animal use methods in this study were approved by the IACUC Committee of the Shanghai Institute of Materia Medica.
60 minutes after oral administration, blood glucose was measured again as zero-point blood glucose. Then, 2 g/kg of sugar was orally administered, and blood glucose was measured using a blood glucose meter 15 minutes, 30 minutes, 60 minutes, and 90 minutes after sugar administration. In order to explore the effect of long-term administration on glucose tolerance, 2 g/kg of sugar was orally administered again […] the administration of the compound, and the blood glucose changes were measured at 180 min, 195 min, 210 min, 240 min, and 270 min.

The next test has as its target hERG potassium channels (Homo sapiens, UniProt Q12809). The test is described as follows: cell-based. The method, then: CHO cells expressing hERG protein were cultured in 175 cm^2 culture flasks. When the cell density grew to 60-80%, the culture medium was removed, the cells were washed once with 7 mL PBS, and then 3 mL Detachin was added for digestion. After digestion was complete, 7 mL of culture medium was added to neutralize, then centrifuged. The supernatant was aspirated, and 5 mL of culture medium was added to resuspend to ensure that the cell density is 2-5×10^6/mL.
Both the single-cell high-impedance sealing and whole-cell mode formation processes were automatically completed by the Qpatch instrument. After obtaining the whole-cell recording mode, the cell was clamped at -80 mV. Before a 5-second +20 mV depolarizing stimulus was given, a 50-ms -50 mV pre-voltage was given, and then the cell was repolarized to -50 mV for 5 seconds and then returned to -80 mV. This voltage stimulation was applied every 15 seconds. After recording for 2 minutes, the extracellular solution was recorded for 2 minutes. Then the drug administration process began. The compound concentration started from the lowest tested concentration. Each tested concentration was given for 2 minutes. […] At least three cells were tested for each concentration (n≥3).
The compound stock solution was diluted with extracellular fluid, 5 µL of 20 mM compound stock solution was added to 2495 µL extracellular fluid, diluted 500 times to 40 µM, and then serially diluted 3 times in extracellular fluid containing 0.2% DMSO (v/v) to obtain the final concentration to be tested.
The experimental data were analyzed by XLFit software.

Test [2] concerns hGLP-1 receptor knock-in mice. Nature of the test: Mouse food intake suppression experiment (compound 19). In kind it is in vivo. The following applies: 30 mg/kg oral. As to the method:
as §1, with “The animal use methods in this study were approved by the IACUC Committee of the Shanghai Institute of Materia Medica.” left out

The next test deals with β-arrestin 2. Nature of the test: NanoBiT recruitment of β-arrestin 2 by GLP-1R in HEK293 cells. In kind it is cell-based, human. Particulars: endogenous GLP-1 = 100%; Figure 2, n=3. From the text:
(§2) The Promega NanoBiT protein-protein reaction system was used to detect the recruitment of β-arrestin 1 and β-arrestin 2 by GLP-1R. The NanoBit Protein-Protein Reaction System was a dual-subunit system based on NanoLuc luciferase that could be used to detect protein-protein interactions in cells. The LgBiT (17.6 kDa) and SmBiT (11 amino acids) subunits were fused to the proteins of interest, respectively. When the proteins of interest interact, the two subunits came into close proximity to form an enzyme with catalytic activity, which could catalyze the luminescence of the luciferase substrate. Firstly, the human GLP-1R gene was connected to the N-terminus of LgBit, the β-arrestin 1/2 gene was cloned to the C-terminus of SmBit, and the fusion protein was introduced into the pcDNA3.0 vector to construct plasmids expressing hGLP-1R-LgBit and SmBit-β-arrestin 1/2 fusion proteins. The hGLP-1R-LgBit plasmid and SmBit-β-arrestin 1 (or SmBit-β-arrestin 2) plasmid were co-transfected into HEK293 cells at a ratio of 1 µg plasmid/2×10^6 cells.

The next test relates to β-arrestin 1. Nature of the test: NanoBiT recruitment of β-arrestin 1 by GLP-1R in HEK293 cells. Particulars: endogenous GLP-1 = 100%; Figure 1, n=3. In kind it is cell-based, human.
Description: as §2

For test [3], the system named is hGLP-1 receptor knock-in mice. The test is described as follows: Long-term administration in high-fat diet fed hGLP-1R mice for weight loss. The test is classed as in vivo. Particulars: ammonium salt. The method, then: as §1
The mice were weighed every day, and 24 hours after the last administration, the body fat and muscle content of the mice were detected using a Bruker desktop nuclear magnetic resonance spectrometer (model LF90II). • (4) Experimental results

Test [4] has as its system hGLP-1 receptor knock-in mice. Nature of the test: Mouse food intake suppression experiment (compound 76-1). The following applies: 10 or 30 mg/kg oral. The test is classed as in vivo. The method, then: as §1, with “The animal use methods in this study were approved by the IACUC Committee of the Shanghai Institute of Materia Medica.” left out
Another test deals with hGLP-1R transgenic mice. The test is described as follows: Hypoglycemic effect of compound 76-1 (oral glucose tolerance test). In kind it is in vivo. The method, then:
Mouse model: hGLP-1R transgenic mice, 6 female mice per experimental group.
Experimental procedure: The mice were starved overnight, and the blood sugar in the tail of the mice was measured. 30 minutes after oral administration, the blood sugar was measured again as the blood sugar at zero point. Then, 2g/kg of sugar was given orally. 15min, 30min, 60min, and 90min after sugar administration, the blood sugar was measured using a blood glucose meter.

T1 sequence (P43220 24-463): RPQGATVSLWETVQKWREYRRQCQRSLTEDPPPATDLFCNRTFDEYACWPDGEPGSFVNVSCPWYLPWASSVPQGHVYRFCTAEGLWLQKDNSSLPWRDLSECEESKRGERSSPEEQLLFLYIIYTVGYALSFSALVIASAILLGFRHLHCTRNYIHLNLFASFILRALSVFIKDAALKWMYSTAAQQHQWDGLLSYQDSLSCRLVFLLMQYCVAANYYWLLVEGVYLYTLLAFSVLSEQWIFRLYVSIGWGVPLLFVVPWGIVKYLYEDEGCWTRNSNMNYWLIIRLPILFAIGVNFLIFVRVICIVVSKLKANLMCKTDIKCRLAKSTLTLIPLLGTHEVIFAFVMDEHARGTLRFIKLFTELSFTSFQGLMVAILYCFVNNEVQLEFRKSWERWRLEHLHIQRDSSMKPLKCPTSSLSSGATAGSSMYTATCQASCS
Chain of hERG potassium channels (Q12809 whole entry): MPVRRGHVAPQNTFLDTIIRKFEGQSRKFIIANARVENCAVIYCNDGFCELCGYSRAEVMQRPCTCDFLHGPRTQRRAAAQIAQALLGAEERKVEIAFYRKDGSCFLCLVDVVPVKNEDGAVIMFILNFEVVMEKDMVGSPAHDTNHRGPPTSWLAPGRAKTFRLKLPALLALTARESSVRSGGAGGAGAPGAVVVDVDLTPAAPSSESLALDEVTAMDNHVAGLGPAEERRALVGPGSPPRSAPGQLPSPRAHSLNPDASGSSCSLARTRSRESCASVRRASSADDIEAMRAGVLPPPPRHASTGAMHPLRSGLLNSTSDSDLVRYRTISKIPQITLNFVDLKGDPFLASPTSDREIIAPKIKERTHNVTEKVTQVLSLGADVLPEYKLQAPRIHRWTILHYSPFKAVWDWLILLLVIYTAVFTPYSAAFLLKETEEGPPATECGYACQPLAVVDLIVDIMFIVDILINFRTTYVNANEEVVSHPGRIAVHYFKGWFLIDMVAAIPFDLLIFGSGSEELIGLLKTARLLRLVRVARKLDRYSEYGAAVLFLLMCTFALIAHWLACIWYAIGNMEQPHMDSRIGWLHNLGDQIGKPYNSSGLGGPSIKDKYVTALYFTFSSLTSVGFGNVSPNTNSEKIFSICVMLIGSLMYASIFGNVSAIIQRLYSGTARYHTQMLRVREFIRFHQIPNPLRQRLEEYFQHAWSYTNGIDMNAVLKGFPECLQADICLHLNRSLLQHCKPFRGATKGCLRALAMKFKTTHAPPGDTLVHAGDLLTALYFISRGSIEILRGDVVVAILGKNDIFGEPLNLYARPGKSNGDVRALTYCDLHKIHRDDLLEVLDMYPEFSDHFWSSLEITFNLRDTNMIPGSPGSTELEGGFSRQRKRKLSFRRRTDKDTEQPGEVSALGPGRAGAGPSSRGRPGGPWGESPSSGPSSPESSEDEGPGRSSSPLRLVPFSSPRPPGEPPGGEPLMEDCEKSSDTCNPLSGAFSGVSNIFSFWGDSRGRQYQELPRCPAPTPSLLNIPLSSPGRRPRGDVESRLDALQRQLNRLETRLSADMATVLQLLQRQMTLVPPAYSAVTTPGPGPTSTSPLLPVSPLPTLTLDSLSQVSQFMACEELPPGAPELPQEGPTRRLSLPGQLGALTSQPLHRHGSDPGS

What is called EC50 is the concentration that produces a half-maximal response. With `[2H]C([2H])([2H])C([2H])([2H])Oc1cc(C(=O)O)cc2c1nc(CN1CCN(c3cccc4c3O[C@@](C)(c3ccc(C(F)(F)F)cc3F)O4)C=N1)n2C[C@@H]1CCO1` [Compound 82-1, 4-(ethoxy-d5)-2-((4-((S)-2-(2-fluoro-4-(trifluoromethyl)phenyl)-2-methylbenzo[d][1,3]dioxol-4-yl)-5,6-dihydro-1,2,4-triazin-1(4H)-yl)methyl)-1-(((S)-oxetan-2-yl)methyl)-1H-benzo[d]imidazole-6-carboxylic acid], the EC50 at human GLP-1 receptor was found to be 0.0051 nM. Further, in the test with hGLP-1R KI mice, the “duration of the food intake reducing effect” value came to 24 h and the food intake result is “significantly reduce the food intake”.

The IC50 is the concentration that gives 50% inhibition. With `COc1cc(C(=O)O)cc2c1nc(CN1CCC(c3cccc(OCc4ccc(Cl)cc4F)n3)CC1)n2C[C@@H]1CCO1` [Compound 19, (S)-2-((4-(6-((4-chloro-2-fluorobenzyl)oxy)pyridin-2-yl)piperidin-1-yl)methyl)-4-methoxy-1-(oxetan-2-ylmethyl)-1H-benzo[d]imidazole-6-carboxylic acid], the EC50 on human GLP-1 receptor stood at 0.0026 nM. Also, the “effect compared with positive control PF-06882961 ammonium salt at the same dose” value in test [1] (1 mg/kg oral, oral glucose tolerance test) is given as “better than the positive control PF-06882961 ammonium salt”. In addition, the “lowering blood sugar in long-term oral glucose tolerance test” value in [1] (ammonium salt, 1 mg/kg oral, second sugar load 240 min after administration, AUC(180-270), vs PF-06882961 ammonium salt) is given as “more significant effect in lowering blood sugar”. The “blood glucose area under the curve” value in test [1] (ammonium salt, orally administered at 1 mg/kg, AUC(0-90), vs blank control) is reported as “significantly reduce”. The blood glucose concentration result in [1] (ammonium salt, orally administered at 1 mg/kg, vs blank control) was “significantly reduce”. In addition, the 50% inhibitory concentration (IC50) on hERG potassium channels was 12500 nM. Besides, in test [2], the “effect on food intake compared with positive control PF-06882961 ammonium salt at the same dose” value is listed as “better than the positive control PF-06882961 ammonium salt”. Further, in test [2] (ammonium salt, within 0 to 12 hours after administration), the food intake entry is reported as “significantly inhibit the food intake”.

`CC[C@H](C)[C@H](NC(=O)[C@H](Cc1ccccc1)NC(=O)[C@H](CCC(=O)O)NC(=O)[C@H](CCCCN)NC(=O)[C@H](C)NC(=O)[C@H](C)NC(=O)[C@H](CCC(N)=O)NC(=O)CNC(=O)[C@H](CCC(=O)O)NC(=O)[C@H](CC(C)C)NC(=O)[C@H](Cc1ccc(O)cc1)NC(=O)[C@H](CO)NC(=O)[C@H](CO)NC(=O)[C@@H](NC(=O)[C@H](CC(=O)O)NC(=O)[C@H](CO)NC(=O)[C@@H](NC(=O)[C@H](Cc1ccccc1)NC(=O)[C@@H](NC(=O)CNC(=O)[C@H](CCC(=O)O)NC(=O)[C@H](C)NC(=O)[C@@H](N)Cc1c[nH]cn1)[C@@H](C)O)[C@@H](C)O)C(C)C)C(=O)N[C@@H](C)C(=O)N[C@@H](Cc1c[nH]c2ccccc12)C(=O)N[C@@H](CC(C)C)C(=O)N[C@H](C(=O)N[C@@H](CCCCN)C(=O)NCC(=O)N[C@@H](CCCNC(=N)N)C(N)=O)C(C)C` [GLP-1]: in the test on β-arrestin 2, the “maximum agonistic effect (Emax) recruiting β-arrestin 2” value was 100%. In addition, the “maximum agonistic effect (Emax) recruiting β-arrestin 1” value in the test with β-arrestin 1 came to 100%.

Consider `[2H]C([2H])([2H])C([2H])([2H])Oc1cc(C(=O)O)cc2c1nc(CN1CCN(c3cccc4c3O[C@@](C)(c3ccc(Cl)cc3F)O4)C=N1)n2C[C@@H]1CCO1` [Compound 76-1, 2-((4-((S)-2-(4-chloro-2-fluorophenyl)-2-methylbenzo[d][1,3]dioxol-4-yl)-5,6-dihydro-1,2,4-triazin-1(4H)-yl)methyl)-4-(ethoxy-d5)-1-(((S)-oxetan-2-yl)methyl)-1H-benzo[d]imidazole-6-carboxylic acid], for which the “weight gain of HFD-fed mice” value in [3] (30 mg/kg by gavage once a day, 15 days) is reported as “effectively inhibit the weight gain”. For the same molecule, the “reduce body weight compared with the blank control group” value in test [3] (30 mg/kg once a day, after 15 days of administration, HFD) turned out to be 20.4%. Moreover, the “body fat and lean (muscle) content change trend in HFD mice” value in [3] (30 mg/kg, after 15 days of administration) is listed as “effectively inhibit this change trend”. The “effect on food intake compared with positive control PF-06882961 ammonium salt at the same dose” value in test [4] was “better than the positive control PF-06882961 ammonium salt”. For the same molecule, in test [4] (ammonium salt, within 0 to 12 hours, fasted 6 h), the food intake entry is given as “significantly inhibit the food intake”. In addition, on human GLP-1 receptor, the concentration giving a half-maximal response (EC50) is 0.0016 nM. Besides, in the test with hGLP-1R transgenic mice (ammonium salt, 0.1, 0.3 mg/kg oral), the “area under the blood glucose curve (AUC)” value is reported as “dose-dependently reduce”. The blood glucose level result in the test on hGLP-1R transgenic mice (ammonium salt, 0.1, 0.3 mg/kg oral, 30 min before 2 g/kg sugar) is listed as “dose-dependently reduce”. For the same molecule, in the test on hGLP-1R transgenic mice (ammonium salt, oral, oral glucose tolerance test), the effective dose is ≤ 0.1 mg/kg.
